Blank lines part the entries; values can stand above or below the compound they belong to.
Legend:
ROCK1 = ROCK1 (Homo sapiens, UniProt Q13464); test: kinase inhibition assay panel; type: biochemical
Experimental: (§1) Base Reaction buffer; 20 mM Hepes (pH 7.5), 10 mM MgCl2, 1 mM EGTA, 0.02% Brij35, 0.02 mg/ml BSA, 0.1 mM Na3VO4, 2 mM DTT, 1% DMSO
(§2) It should be noted that required cofactors are added individually to each kinase reaction.
(§3) • 1. Prepare indicated substrate in freshly prepared Base Reaction Buffer as described above • 2. Deliver any required cofactors to the substrate solution • 3. Deliver indicated kinase into the substrate solution and gently mix • 4. Deliver compounds in DMSO into the kinase reaction mixture • 5. Deliver ^33P-ATP (specific activity 0.01 μCi/μl final) into the reaction mixture to initiate the reaction • 6. Incubate kinase reaction for 120 min. at room temperature • 7. Reactions are spotted onto P81 ion exchange paper (Whatman #3698-915) • 8. Wash filters extensively in 0.75% Phosphoric acid Kinase Information: • CK1δ—Genbank Accession # NP_620693 • Recombinant human full-length construct. GST-tagged, expressed in insect cells. • Final concentration in assay=4 nM • Substrate: CK1tide • Substrate sequence: [KRRRAL[pS]VASLPGL] • Final substrate concentration in assay=20 μM • It should be noted that no additional cofactors are added to the reaction mixture.

GSK3b = GSK3b (Homo sapiens, UniProt P49841); test: kinase inhibition assay panel; type: biochemical
Experimental: as §1, §2, §3

MSK1/RPS6KA5 = MSK1/RPS6KA5 (Homo sapiens, UniProt O75582); test: kinase inhibition assay panel; type: biochemical
Experimental: as §1, §2, §3

c-SRC = c-SRC (Homo sapiens, UniProt P12931); test: kinase inhibition assay panel; type: biochemical
Experimental: as §1, §2, §3

PKCa = PKCa (Homo sapiens, UniProt P17252); test: kinase inhibition assay panel; type: biochemical
Experimental: as §1, §2, §3

HGK/MAP4K4 = HGK/MAP4K4 (Homo sapiens, UniProt O95819); test: kinase inhibition assay panel; type: biochemical
Experimental: as §1, §2, §3

PDK1/PDPK1 = biological target: T1, PDK1/PDPK1 (Homo sapiens, UniProt O15530); test: kinase inhibition assay panel; type: biochemical
T1 sequence (O15530 1-556): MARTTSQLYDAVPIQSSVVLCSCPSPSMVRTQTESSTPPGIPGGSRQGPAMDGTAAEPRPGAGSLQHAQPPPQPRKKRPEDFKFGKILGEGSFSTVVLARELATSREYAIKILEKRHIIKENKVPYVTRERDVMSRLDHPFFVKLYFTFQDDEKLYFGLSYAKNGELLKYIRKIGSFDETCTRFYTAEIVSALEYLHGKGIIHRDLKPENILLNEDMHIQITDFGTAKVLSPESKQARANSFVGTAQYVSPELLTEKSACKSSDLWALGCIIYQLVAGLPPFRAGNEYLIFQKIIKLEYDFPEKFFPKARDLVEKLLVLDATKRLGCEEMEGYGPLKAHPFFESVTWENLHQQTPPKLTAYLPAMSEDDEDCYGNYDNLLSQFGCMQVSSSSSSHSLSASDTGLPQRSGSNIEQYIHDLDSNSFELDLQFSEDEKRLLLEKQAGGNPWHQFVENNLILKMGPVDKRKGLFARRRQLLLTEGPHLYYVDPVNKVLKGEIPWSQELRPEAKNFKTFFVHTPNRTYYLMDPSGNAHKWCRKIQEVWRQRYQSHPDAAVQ
Experimental: as §1, §2, §3

CDK5/p25 = CDK5/p25 (Homo sapiens, UniProt Q00535); test: kinase inhibition assay panel; type: biochemical
Experimental: as §1, §2, §3

PKCb2 = PKCb2 (Homo sapiens, UniProt P05771); test: kinase inhibition assay panel; type: biochemical
Experimental: as §1, §2, §3

PIM3 = PIM3 (Homo sapiens, UniProt Q86V86); test: kinase inhibition assay panel; type: biochemical
Experimental: as §1, §2, §3

ABL2/ARG = ABL2/ARG (Homo sapiens, UniProt P42684); test: kinase inhibition assay panel; type: biochemical
Experimental: as §1, §2, §3

LCK = LCK (Homo sapiens, UniProt P06239); test: kinase inhibition assay panel; type: biochemical
Experimental: as §1, §2, §3

KDR/VEGFR2 = KDR/VEGFR2 (Homo sapiens, UniProt P35968); test: kinase inhibition assay panel; type: biochemical
Experimental: as §1, §2, §3

CK1g2 = CK1g2 (Homo sapiens, UniProt P78368); test: kinase inhibition assay panel; type: biochemical
FGFR1 = FGFR1 (Homo sapiens, UniProt P11362); test: kinase inhibition assay panel; type: biochemical
CK1δ = biological target: T2, CK1δ (Homo sapiens, UniProt P48730); test: CK1δ inhibition assay (33P-ATP, CK1tide substrate); type: biochemical; details: range of kinase inhibition assays
T2 construct: Recombinant human full-length construct; GST; host or cells: insect cells
T2 sequence (P48730 1-409 isoform P48730-2): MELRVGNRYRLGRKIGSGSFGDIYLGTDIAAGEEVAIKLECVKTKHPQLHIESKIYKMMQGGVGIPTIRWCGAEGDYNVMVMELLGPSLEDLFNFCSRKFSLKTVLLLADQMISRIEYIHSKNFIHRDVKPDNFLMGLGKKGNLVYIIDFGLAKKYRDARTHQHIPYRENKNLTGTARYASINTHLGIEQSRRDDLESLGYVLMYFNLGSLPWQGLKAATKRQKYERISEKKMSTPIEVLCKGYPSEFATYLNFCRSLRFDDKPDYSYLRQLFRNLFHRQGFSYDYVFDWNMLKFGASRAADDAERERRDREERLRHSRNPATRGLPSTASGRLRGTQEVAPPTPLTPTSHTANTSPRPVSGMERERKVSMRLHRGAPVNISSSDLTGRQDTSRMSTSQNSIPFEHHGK
Experimental: The compounds of the invention may be tested for inhibition of casein kinase 1 delta (CK1δ) in accordance with the assay protocols described in US 2010/0152157, EP 1,636,375 or Hanger et al (2007) J. Biol. Chem. 282, 23645-23654. In particular, the assay was conducted in accordance with the following protocol:
as §1, §2, §3

CLK2 = CLK2 (Homo sapiens, UniProt P49760); test: kinase inhibition assay panel; type: biochemical
CK1g1 = CK1g1 (Homo sapiens, UniProt Q9HCP0); test: kinase inhibition assay panel; type: biochemical
[1] = system: Tau phosphorylation at key pathogenic sites in SH-SY5Y-TMHT cells; details: SH-SY5Y-TMHT cells exposed to kinase inhibitors; cited from earlier work
SH-SY5Y-TMHT cells = test: Cell viability, MTT assay; type: cell-based, human; details: 0.5 μM (tested 0.1 μM to 1 μM), 6 h of treatment
Experimental: (§4) SH-SY5Y-TMHT cells are kept in culture medium (DMEM medium, 10% FCS, 1% NEAA, 1% L-Glutamine, 100 μg/ml Gentamycin, 300 μg/ml Geneticin G-418) for 2 days until 80-90% confluency. Cells are then differentiated in culture medium supplemented with 10 μM retinoic acid (RA) for 7 days changing medium every 2 to 3 days. Differentiated cells are seeded onto 6-well plates and 96-well plates at a cell density of 1.25×10^6 and 8×10^5 cells per well, respectively. On day 8 post-differentiation, the test compounds, reference compounds and vehicle control were added to the culture medium. After 6 h of compound exposure one plate of cells is subjected to a MTT assay to evaluate the effect of test and reference items on cell viability. Remaining wells are washed once with cold PBS and harvested in 300 μl RIPA-Buffer [50 mM Tris pH 7.4, 1% Nonident P40, 0.25% Na-deoxy-cholate, 150 mM NaCl, 1 mM EDTA, 1 μM NaF, 1 μM Na-ortho-vanadate, 80 mM Glycerophosphate, supplemented with freshly added protease (Calbiochem) and phosphatase (Sigma) inhibitor cocktail]. The cell suspension is transferred into a 1.5 ml tube and additionally lysed by sonication on ice. An aliquot of 20 μl is taken for the determination of the protein concentration (BCA assay). Subsequently, the lysates are snap frozen and stored at −80° C. until shipment.
To determine compound activity, it is necessary to control for potential cell toxicity of all molecules. Viability of cultures is determined by the MTT assay. This assay allows the measurement of the mitochondrial dehydrogenase activity which reduces yellow MTT to dark blue formazan crystals. Since this reaction is catalyzed in living cells only this assay is used for the determination of cell viability. MTT solution is added to each well in a final concentration of 0.5 mg/ml. After 2 hours, the MTT containing medium is aspired. Cells are lysed in 3% SDS and the formazan crystals are dissolved in isopropanol/HCl. Optical density is measured with a plate-reader at wavelength 570 nm. Cell survival rate is expressed as optical density (OD). Values are calculated as percent of control values.
Cell viability was determined in differentiated SH-SY5Y-TMHT cells by the MTT assay. Test and reference compounds were applied in a concentration range from 0.05 μM to 10 μM and from 0.1 μM to 1 μM, respectively. Upon 6 h of treatment, cell viability was evaluated. […] Statistical significance is indicated by *<0.05, **<0.01, ***<0.001 as determined by One-Way ANOVA. Data are shown from two independent experiments as group mean+/−SEM (n=8). […] Statistical significance is indicated by *<0.05, **<0.01, ***<0.001 as determined by One-Way ANOVA. […] Statistical significance is indicated by *<0.05, **<0.01, ***<0.001 as determined by One-Way ANOVA. […]

[2] = system: total Tau in SH-SY5Y-TMHT cells; test: Western Blot of total Tau; type: cell-based, human; details: 5 μM
Experimental: as §4
(§5) Lysates of treated cells were prepared in Laemmli buffer and 10 μg loaded into each lane of a 10% Nu-PAGE gel (Invitrogen, UK). Samples were run until the coomassie blue dye fromt was within 1 cm of the bottom of the gel. The separated proteins were transferred onto nitrocellulose and blots developed using antibodies specific for total tau (Polyclonal Rabbit Anti-Human Tau, Dako, UK (cat # A0024)) and phopho-Threonine 231 (Tau (Phospho-Thr231) Antibody, Signalway Antibody, USA (cat # 11110)) respectively. In each case the bound antibody was detected using ECL Rabbit IgG, HRP-Linked (from donkey) (GE Healthcare, UK (cat # NA934))

[3] = system: Tau phosphorylated at Threonine 231 in SH-SY5Y-TMHT cells; test: Western Blot of Tau phosphorylated at Threonine 231; type: cell-based, human; details: 5 μM, Western Blot
Experimental: as §4, §5

Sequence of GSK3b (P49841 whole entry, species assumed): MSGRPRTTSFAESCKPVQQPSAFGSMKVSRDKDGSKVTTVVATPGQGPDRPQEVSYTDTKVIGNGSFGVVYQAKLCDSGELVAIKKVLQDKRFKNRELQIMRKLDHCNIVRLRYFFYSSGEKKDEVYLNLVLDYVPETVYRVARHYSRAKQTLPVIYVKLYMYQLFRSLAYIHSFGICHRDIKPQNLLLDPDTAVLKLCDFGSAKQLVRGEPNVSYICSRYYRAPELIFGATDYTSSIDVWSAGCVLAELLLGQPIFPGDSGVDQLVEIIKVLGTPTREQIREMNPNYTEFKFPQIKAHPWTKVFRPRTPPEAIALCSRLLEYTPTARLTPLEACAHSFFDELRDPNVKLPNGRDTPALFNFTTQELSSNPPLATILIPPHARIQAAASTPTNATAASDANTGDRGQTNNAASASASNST
Sequence of c-SRC (P12931 whole entry, species assumed): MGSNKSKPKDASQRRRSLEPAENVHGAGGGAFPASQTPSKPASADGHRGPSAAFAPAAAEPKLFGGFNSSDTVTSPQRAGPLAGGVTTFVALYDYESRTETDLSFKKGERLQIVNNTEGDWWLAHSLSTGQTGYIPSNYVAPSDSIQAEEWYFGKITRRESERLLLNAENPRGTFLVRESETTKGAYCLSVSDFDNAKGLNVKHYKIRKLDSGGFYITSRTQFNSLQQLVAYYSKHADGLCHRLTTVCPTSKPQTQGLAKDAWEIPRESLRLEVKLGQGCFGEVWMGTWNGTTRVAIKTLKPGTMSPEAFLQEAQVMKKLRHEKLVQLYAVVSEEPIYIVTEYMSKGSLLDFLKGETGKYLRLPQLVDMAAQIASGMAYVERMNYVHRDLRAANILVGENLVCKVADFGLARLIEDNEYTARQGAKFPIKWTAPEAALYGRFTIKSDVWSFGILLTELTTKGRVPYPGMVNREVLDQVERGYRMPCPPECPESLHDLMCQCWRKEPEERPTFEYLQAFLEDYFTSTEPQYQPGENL
Sequence of CLK2 (P49760 whole entry, species assumed): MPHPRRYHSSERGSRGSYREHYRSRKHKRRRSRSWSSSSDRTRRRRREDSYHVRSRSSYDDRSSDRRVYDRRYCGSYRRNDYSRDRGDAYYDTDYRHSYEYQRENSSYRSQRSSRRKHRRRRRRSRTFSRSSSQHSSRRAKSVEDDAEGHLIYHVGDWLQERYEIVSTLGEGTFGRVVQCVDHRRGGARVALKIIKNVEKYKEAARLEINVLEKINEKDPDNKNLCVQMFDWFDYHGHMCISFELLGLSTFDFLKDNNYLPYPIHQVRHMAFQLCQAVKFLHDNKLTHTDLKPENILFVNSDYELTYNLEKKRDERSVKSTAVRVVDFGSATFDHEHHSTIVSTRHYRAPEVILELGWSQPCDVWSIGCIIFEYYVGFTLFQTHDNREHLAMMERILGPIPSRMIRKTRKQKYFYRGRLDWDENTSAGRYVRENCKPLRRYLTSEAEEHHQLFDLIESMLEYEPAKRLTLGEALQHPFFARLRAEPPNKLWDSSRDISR
Sequence of ROCK1 (Q13464 whole entry, species assumed): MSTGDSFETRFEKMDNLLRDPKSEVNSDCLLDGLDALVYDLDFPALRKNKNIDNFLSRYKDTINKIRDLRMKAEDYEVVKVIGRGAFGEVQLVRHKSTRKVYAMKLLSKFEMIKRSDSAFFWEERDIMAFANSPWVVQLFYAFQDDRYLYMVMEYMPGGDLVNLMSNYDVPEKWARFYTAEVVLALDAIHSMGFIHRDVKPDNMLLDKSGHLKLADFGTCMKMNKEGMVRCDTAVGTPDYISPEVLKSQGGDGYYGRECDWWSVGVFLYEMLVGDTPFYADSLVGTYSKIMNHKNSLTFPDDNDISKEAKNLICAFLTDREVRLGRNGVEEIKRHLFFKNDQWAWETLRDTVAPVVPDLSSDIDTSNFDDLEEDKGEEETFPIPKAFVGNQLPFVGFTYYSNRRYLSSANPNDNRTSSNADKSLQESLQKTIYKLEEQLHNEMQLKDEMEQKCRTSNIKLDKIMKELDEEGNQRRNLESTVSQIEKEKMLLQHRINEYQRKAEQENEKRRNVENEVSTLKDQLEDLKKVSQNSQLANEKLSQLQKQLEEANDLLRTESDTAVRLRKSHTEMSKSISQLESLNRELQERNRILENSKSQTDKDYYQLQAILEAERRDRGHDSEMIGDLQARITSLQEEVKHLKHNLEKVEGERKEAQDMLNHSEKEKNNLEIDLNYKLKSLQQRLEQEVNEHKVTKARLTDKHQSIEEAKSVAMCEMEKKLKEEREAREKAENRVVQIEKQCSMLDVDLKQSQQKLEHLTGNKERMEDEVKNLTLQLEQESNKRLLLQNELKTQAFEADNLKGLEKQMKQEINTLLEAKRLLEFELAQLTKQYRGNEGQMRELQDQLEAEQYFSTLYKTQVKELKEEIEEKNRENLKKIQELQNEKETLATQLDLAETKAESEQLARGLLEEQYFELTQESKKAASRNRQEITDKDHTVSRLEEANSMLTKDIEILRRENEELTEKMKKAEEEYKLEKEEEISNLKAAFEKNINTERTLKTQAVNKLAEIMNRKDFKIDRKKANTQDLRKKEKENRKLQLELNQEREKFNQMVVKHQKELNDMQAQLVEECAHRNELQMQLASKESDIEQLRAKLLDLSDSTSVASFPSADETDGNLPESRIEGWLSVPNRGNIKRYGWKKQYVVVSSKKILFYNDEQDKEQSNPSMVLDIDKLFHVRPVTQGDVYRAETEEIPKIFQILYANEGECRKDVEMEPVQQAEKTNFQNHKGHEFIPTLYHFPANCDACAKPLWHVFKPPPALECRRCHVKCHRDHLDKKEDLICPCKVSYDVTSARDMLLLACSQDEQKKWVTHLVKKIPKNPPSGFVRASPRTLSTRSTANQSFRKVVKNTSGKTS
Sequence of MSK1/RPS6KA5 (O75582 whole entry): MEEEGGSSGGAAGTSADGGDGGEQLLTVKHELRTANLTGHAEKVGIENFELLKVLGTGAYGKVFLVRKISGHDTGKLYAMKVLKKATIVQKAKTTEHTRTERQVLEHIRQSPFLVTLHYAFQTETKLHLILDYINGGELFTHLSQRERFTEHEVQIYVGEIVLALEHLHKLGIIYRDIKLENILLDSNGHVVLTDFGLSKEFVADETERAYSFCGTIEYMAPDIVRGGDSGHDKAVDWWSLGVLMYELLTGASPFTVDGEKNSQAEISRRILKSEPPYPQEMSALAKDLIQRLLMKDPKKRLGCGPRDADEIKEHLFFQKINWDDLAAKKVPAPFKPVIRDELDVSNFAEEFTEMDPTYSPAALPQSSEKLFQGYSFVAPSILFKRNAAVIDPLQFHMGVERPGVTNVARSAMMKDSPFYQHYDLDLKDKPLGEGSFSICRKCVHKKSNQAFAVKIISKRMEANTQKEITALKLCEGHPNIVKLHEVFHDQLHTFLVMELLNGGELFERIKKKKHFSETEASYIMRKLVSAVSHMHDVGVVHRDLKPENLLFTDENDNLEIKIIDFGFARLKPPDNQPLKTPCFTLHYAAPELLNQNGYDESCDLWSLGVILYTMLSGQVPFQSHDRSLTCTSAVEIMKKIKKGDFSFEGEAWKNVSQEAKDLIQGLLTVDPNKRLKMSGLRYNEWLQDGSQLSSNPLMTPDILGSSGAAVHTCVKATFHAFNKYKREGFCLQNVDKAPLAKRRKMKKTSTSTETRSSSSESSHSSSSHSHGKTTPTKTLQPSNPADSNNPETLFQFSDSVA
Sequence of FGFR1 (P11362 22-822, species assumed): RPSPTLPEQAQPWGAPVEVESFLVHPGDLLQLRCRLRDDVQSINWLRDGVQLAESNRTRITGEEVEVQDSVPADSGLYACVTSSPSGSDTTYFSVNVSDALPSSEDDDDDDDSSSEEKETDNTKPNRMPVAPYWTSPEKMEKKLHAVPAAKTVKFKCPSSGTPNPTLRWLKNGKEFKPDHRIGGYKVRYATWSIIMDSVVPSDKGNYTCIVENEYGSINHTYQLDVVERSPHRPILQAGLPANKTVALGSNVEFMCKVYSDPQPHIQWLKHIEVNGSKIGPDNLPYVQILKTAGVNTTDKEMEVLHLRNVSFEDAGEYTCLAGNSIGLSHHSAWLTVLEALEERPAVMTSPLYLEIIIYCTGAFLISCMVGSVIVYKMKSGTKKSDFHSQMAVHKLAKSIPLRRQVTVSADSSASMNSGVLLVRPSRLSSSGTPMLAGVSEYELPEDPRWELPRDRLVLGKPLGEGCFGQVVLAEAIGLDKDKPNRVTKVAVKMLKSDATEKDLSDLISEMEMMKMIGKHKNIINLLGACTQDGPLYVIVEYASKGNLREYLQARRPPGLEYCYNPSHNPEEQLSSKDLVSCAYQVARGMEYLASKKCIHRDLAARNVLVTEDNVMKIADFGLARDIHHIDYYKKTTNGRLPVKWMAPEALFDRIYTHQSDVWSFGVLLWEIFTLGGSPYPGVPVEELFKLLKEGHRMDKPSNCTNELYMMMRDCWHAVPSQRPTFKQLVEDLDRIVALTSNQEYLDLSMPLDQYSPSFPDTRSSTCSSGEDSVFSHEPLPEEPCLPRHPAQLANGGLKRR
Sequence of CK1g1 (Q9HCP0 whole entry): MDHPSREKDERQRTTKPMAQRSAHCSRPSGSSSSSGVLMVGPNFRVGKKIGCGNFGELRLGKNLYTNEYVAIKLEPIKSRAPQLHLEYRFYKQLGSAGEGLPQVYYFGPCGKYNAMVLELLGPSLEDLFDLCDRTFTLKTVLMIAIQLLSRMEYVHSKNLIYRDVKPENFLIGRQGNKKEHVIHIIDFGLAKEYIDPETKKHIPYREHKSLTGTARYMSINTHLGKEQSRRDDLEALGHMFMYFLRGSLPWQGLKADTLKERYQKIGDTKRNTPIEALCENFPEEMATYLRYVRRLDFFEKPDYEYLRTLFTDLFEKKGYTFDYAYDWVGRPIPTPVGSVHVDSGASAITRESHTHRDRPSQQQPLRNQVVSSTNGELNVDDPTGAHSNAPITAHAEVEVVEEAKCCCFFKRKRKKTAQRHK

inhibition of ROCK1 (ROCK1): lower than 40% | inhibition of GSK3b (GSK3b): lower than 40% | inhibition of MSK1/RPS6KA5 (MSK1/RPS6KA5): lower than 40% | inhibition of c-SRC (c-SRC): lower than 40% | inhibition of PKCa (PKCa): lower than 40% | inhibition of HGK/MAP4K4 (HGK/MAP4K4): lower than 40% | inhibition of PDK1/PDPK1 (PDK1/PDPK1): lower than 40% | inhibition of CDK5/p25 (CDK5/p25): lower than 40% | inhibition of PKCb2 (PKCb2): lower than 40% | inhibition of PIM3 (PIM3): lower than 40% | inhibition of ABL2/ARG (ABL2/ARG): lower than 40% | inhibition of LCK (LCK): lower than 40% | inhibition of KDR/VEGFR2 (KDR/VEGFR2): lower than 40% | inhibition of CK1g2 (CK1g2): lower than 40% | inhibition of FGFR1 (FGFR1): lower than 40% | inhibition of CLK2 (CLK2): lower than 40% | inhibition of CK1g1 (CK1g1): lower than 40%
SMILES: NC(=O)c1c(N)n(C(=O)c2ccc(F)cc2)c2ccccc12 [Compound 999, 2-amino-1-[(4-fluorophenyl)carbonyl]-1H-indole-3-carboxamide]
selectivity for CK1δ when compared with other kinases (CK1δ): significant and selective inhibition for CK1δ

SMILES: COc1cc(OC)c(C=C2C(O)=Nc3ccccc32)c(OC)c1 [IC261]
levels of Tau phosphorylation at key pathogenic sites [1]: reduced

SMILES: Nc1nccc(-c2c(-c3ccc(F)cc3)ncn2C2CCCCC2)n1 [PF670462, reference compound]
effect on the cell viability of SH-SY5Y-TMHT cells (SH-SY5Y-TMHT cells): significant protective effect | detectable levels of total Tau [2]: marginally less total Tau | detectable level of pT231 in Tau protein [3]: reduced the detectable level of pT231

From patent US9789111B2, “Casein kinase 1δ (CK 1δ) inhibitors” (Electrophoretics Limited, priority 2010, dated 2017)
